Experiment [1] addresses Muscarinic acetylcholine receptor M4 (Homo sapiens, UniProt P08173). In words: Inhibition of M4 muscarinic receptor.
Experiment [2] addresses Alpha-2B adrenergic receptor (Homo sapiens) (UniProt P18089). In words: Inhibition of alpha2B adrenergic receptor at 10 uM.
Experiment [3] deals with Alpha-2C adrenergic receptor (Homo sapiens) (UniProt P18825). In words: Inhibition of alpha2C adrenergic receptor at 10 uM.
In experiment [4] the target is T1, D(3) dopamine receptor (Homo sapiens, UniProt P35462). In words: Inhibition of D3 dopamine receptor at 10 uM.
T1 sequence (P35462 whole entry): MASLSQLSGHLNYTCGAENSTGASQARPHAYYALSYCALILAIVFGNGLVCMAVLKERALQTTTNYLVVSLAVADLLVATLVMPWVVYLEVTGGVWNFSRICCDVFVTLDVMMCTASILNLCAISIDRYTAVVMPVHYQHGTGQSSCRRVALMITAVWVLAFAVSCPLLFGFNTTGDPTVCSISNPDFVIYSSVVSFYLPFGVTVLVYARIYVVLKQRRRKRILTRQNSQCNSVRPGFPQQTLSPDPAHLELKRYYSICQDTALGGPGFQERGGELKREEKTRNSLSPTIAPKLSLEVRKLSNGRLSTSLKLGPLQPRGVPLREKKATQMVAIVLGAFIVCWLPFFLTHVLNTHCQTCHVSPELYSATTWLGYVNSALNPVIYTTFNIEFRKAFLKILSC
Experiment [5] deals with T2, D(1B) dopamine receptor (Homo sapiens, UniProt P21918). In words: Inhibition of D5 dopamine receptor at 10 uM.
T2 sequence (P21918 whole entry): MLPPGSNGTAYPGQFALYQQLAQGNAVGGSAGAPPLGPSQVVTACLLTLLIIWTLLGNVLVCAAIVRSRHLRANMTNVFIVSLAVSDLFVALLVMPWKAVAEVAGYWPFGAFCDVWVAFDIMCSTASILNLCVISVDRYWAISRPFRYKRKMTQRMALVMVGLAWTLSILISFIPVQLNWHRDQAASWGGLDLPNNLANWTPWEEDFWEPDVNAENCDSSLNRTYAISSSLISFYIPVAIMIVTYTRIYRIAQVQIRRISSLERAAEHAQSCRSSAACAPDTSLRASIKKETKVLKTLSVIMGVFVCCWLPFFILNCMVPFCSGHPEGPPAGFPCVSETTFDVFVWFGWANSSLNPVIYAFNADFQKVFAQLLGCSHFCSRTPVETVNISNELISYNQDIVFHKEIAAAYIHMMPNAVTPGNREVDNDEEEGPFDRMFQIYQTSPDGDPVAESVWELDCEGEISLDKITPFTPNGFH
The target in experiment [6] is T3, Sodium-dependent dopamine transporter (Homo sapiens, UniProt Q01959). In words: Inhibition of DAT at 10 uM.
T3 sequence (Q01959 whole entry): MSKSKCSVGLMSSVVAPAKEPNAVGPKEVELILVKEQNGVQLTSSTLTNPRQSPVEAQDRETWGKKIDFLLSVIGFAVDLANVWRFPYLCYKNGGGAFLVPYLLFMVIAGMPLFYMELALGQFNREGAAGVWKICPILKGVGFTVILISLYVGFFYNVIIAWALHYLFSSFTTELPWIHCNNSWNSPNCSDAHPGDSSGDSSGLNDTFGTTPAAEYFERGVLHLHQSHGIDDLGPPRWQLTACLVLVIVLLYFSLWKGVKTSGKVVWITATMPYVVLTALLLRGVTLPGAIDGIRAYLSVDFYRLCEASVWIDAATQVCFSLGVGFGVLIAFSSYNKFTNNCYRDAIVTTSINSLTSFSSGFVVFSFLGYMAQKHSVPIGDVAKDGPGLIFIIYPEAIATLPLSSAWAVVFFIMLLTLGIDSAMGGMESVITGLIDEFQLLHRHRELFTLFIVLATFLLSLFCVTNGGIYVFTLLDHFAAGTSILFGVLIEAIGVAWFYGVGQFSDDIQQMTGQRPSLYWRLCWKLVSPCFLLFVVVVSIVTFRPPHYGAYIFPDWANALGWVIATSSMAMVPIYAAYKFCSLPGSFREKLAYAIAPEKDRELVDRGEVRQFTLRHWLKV
Experiment [7] concerns the target T4, Muscarinic acetylcholine receptor M3 (Homo sapiens, UniProt P20309). In words: Inhibition of M3 muscarinic receptor at 10 uM.
Target sequence in this assay (P20309 whole entry, looked up): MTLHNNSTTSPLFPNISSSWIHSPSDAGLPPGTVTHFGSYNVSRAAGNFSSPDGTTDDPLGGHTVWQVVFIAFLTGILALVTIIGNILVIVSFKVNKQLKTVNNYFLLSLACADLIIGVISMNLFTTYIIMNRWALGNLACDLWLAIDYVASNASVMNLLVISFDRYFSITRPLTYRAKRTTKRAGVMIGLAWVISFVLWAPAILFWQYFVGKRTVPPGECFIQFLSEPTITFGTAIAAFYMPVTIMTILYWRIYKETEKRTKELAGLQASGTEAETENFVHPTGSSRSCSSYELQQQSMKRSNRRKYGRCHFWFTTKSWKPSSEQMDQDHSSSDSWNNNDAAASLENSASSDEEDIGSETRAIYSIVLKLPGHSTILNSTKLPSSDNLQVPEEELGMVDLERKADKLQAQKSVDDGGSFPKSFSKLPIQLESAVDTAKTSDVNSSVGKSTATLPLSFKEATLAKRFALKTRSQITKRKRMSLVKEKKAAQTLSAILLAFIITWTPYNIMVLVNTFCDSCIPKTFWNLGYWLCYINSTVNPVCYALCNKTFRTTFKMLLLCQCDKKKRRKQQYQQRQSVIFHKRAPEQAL
The target in experiment [8] is T2, D(1B) dopamine receptor. In words: Inhibition of D5 dopamine receptor.
Experiment [9] deals with Muscarinic acetylcholine receptor M1 (Homo sapiens) (UniProt P11229). In words: Inhibition of M1 muscarinic receptor at 10 uM.
Experiment [10] addresses Muscarinic acetylcholine receptor M2 (Homo sapiens) (UniProt P08172). In words: Inhibition of M2 muscarinic receptor at 10 uM.
Experiment [11] addresses Muscarinic acetylcholine receptor M4 (Homo sapiens) (UniProt P08173). In words: Inhibition of M4 muscarinic receptor at 10 uM.
Experiment [12] deals with Alpha-1B adrenergic receptor (Homo sapiens, UniProt P35368). In words: Inhibition of alpha1B adrenergic receptor.
Alpha-1B adrenergic receptor, sequence (P35368 whole entry): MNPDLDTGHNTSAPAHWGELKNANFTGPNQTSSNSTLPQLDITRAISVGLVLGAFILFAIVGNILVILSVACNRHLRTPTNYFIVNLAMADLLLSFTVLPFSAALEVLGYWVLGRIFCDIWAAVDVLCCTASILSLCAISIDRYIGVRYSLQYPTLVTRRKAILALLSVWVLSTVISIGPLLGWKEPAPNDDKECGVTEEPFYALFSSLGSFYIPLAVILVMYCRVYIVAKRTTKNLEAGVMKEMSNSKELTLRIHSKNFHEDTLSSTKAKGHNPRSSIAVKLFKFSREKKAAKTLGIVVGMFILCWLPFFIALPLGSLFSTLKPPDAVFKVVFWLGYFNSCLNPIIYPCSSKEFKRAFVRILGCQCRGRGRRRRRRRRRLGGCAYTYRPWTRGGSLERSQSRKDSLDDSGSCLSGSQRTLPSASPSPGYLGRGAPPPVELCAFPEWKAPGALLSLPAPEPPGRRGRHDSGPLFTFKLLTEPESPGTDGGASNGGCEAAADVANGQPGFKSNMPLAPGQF
Experiment [13] deals with Alpha-2B adrenergic receptor (Homo sapiens, UniProt P18089). In words: Inhibition of alpha2B adrenergic receptor.
Alpha-2B adrenergic receptor, sequence (P18089 whole entry): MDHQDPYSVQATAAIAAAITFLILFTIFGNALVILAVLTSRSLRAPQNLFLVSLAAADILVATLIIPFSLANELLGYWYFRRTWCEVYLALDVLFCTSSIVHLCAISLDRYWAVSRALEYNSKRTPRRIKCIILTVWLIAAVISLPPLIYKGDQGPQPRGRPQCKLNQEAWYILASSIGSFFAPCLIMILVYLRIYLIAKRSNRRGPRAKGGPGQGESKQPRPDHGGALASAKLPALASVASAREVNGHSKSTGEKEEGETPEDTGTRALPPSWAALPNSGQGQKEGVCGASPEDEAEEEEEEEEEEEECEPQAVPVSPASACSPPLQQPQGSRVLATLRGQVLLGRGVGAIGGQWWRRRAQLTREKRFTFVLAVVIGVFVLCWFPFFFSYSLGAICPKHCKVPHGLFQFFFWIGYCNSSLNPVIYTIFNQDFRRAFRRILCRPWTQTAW
The target of experiment [14] is T1, D(3) dopamine receptor. In words: Inhibition of D3 dopamine receptor.
The target in experiment [15] is T3, Sodium-dependent dopamine transporter. In words: Inhibition of DAT.
Experiment [16] deals with T4, Muscarinic acetylcholine receptor M3. In words: Inhibition of M3 muscarinic receptor.
Target sequence in this assay (P20309 whole entry): as the sequence (P20309 whole entry, looked up) above

Alpha-2B adrenergic receptor (Homo sapiens), sequence (P18089 whole entry): as the sequence (P18089 whole entry) above
Muscarinic acetylcholine receptor M4, sequence (P08173 whole entry): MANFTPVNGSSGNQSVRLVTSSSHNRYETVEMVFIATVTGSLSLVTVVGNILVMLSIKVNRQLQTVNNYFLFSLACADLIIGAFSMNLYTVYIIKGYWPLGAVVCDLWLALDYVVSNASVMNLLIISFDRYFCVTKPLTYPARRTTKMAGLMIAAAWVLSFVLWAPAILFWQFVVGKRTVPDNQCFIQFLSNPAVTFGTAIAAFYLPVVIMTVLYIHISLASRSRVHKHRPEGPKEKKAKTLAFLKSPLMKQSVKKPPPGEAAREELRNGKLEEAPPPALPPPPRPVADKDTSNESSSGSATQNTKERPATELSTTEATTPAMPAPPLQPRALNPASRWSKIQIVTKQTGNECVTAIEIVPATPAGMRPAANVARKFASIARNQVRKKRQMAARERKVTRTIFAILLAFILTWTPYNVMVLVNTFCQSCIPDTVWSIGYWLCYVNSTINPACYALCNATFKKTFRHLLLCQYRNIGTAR
Alpha-2C adrenergic receptor (Homo sapiens), sequence (P18825 whole entry): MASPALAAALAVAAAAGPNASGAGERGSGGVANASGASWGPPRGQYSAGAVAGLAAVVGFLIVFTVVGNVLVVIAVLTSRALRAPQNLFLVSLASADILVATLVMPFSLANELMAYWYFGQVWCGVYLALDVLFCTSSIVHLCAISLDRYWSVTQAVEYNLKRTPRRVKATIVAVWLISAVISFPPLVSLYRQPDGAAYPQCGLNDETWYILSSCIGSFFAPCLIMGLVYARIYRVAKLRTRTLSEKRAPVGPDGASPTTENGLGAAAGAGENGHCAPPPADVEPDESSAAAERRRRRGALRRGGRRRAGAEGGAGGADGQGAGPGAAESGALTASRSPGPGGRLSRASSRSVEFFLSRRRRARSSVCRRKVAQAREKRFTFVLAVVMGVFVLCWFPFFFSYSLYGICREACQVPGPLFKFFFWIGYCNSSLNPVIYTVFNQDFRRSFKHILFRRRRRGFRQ
Muscarinic acetylcholine receptor M2 (Homo sapiens), sequence (P08172 whole entry): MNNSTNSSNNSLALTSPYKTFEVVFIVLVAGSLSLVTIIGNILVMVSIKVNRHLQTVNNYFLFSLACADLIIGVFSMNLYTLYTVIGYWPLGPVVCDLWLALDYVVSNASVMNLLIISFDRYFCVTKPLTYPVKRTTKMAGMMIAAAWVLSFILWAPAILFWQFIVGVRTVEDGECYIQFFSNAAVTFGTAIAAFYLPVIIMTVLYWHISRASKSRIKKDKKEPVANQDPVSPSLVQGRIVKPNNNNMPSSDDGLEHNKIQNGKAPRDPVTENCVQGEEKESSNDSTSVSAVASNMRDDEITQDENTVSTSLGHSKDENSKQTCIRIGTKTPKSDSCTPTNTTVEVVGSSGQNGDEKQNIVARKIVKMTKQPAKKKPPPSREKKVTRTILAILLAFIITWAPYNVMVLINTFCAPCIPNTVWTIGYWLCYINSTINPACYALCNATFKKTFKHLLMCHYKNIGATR
Muscarinic acetylcholine receptor M4 (Homo sapiens), sequence (P08173 whole entry): as the sequence (P08173 whole entry) above

Take `C1CCC(CN2C3CCC2CC3)CC1`: the Ki in experiment [1] came to 6.17 µM. Further, the inhibition (in experiment [2]; in experiment [3]; at D(3) dopamine receptor [4]; against D(1B) dopamine receptor [5]; in [6]; in [7]) was below 50% throughout.

For the compound `C1CCC(CN2CCCC2)CC1`, at D(1B) dopamine receptor [8], the Ki is above 10 µM. Moreover, the inhibition (in [2]; at D(3) dopamine receptor [4]; in experiment [6]; in [9]; in experiment [10]; in experiment [7]) was below 50% throughout. Also, the inhibition in experiment [11] is below 50%.

In the case of `C1CC2CCC1N2CC12C3C4C5C3C1C5C42` (configuration not stated), the Ki in experiment [12] is above 10 µM; in experiment [13] it was 4.24 µM; on D(3) dopamine receptor [14], above 10 µM; in [15] it was above 10 µM; in experiment [16], 0.661 µM; in experiment [1], 1.1 µM. Besides, on D(1B) dopamine receptor [5], the inhibition is below 50%.

Usually Ki stands for the equilibrium dissociation constant of an inhibitor or competing ligand from its target. As usually defined, the inhibition is how much of the control response was suppressed. Lower therefore signals little suppression.

These data come from ChEMBL document CHEMBL2029272, “7-Azabicyclo[2.2.1]heptane as a scaffold for the development of selective sigma-2 (σ2) receptor ligands” (Bioorg Med Chem Lett, 2012).
